In patent US20100144759A1, “NOVEL N-(FLUORO-PYRAZINYL)-PHENYLSULFONAMIDES AS MODULATORS OF CHEMOKINE RECEPTOR CCR4” (AstraZeneca AB, priority 2005, published 2010):

Columns and labels:
[1] = Measurement of plasma protein binding (equilibrium dialysis); type: in vitro ADME; conditions: pooled human plasma, human plasma vs buffer pH 7.4, 37° C., 10 μM compound, read-out: % Bound Human Plasma (converted)
Protocol: The extent of plasma protein binding was determined via equilibrium dialysis of a compound between human plasma and aqueous buffer at 37° C. and determination of the concentration of compound in the plasma and buffer by HPLC-MS/MS.
Dialysis cells (molecular weight cut-off 5000) were prepared by rinsing with water followed by soaking in the dialysis buffer for a minimum of 1 hour. The dialysis buffer was isotonic buffered saline pH 7.4. Stock solutions of compound in dimethylsulphoxide were prepared at a concentration of 1 mM. Frozen pooled Human plasma was obtained from volunteers.
The stock DMSO solution of a compound was added to the plasma at a ratio of 10 μl of DMSO to each ml of plasma.
Dialysis cells were then prepared and one half of the cell filled with 750 μl of dialysis buffer and the other half of the cell with 750 μl of plasma solution of compound. Once prepared the cells were sealed and immersed in a water bath at 37° C. These cells were then rotated for a minimum of 4 hours to equilibrate.
After equilibration 500 μl of the buffer samples were removed and added to HPLC vials along with 100 μl of plasma (sample in 6-fold diluted plasma), and 100 μl of the plasma samples were removed and added to HPLC vials along with 500 μl of dialysis buffer (sample in 6-fold diluted plasma).
The samples were then analysed using HPLC-MS/MS.
The concentration of compound in the samples were determined using MassLynx version 4.0 software (produced by Waters/Micromass) that automatically calculated a calibration curve and the concentration of compound in the cells. Plasma protein binding was determined from the calibration curve as the percentage of compound bound in human plasma (% bound) using the following equation wherein the factor in the numerator accounts for the small dilution of the aqueous samples with plasma and the factor of 6 in the denominator serves to correct for the 6-fold dilution of the plasma samples with buffer;

CCR4 [2] = target: T1, CCR4 (Homo sapiens, UniProt P51679); test: FMAT whole cell binding assay; conditions: CHO-K1 cells expressing human recombinant CCR4; inhibition of FB-MDC binding; read-out: FMAT CCR4 pIC50 (converted)
T1 construct: host or cells: CHO-K1
T1 sequence (P51679 1-360): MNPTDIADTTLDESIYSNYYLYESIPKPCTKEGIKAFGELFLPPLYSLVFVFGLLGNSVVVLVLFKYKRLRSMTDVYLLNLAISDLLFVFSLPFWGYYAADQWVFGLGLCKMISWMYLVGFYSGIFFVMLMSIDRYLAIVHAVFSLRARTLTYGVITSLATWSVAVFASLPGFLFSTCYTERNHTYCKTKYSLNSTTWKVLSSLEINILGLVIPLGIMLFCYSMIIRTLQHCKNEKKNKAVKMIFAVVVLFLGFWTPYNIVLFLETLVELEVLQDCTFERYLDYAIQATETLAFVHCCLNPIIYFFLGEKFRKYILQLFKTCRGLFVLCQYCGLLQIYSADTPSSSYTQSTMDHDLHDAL
Protocol: CHO-K1 cells stably expressing the human recombinant CCR4 receptor (Euroscreen; Brussels, Belgium) were cultured in NUT.MIX.F—12(HAM) medium with glutamax-1, containing 10% (v/v) foetal bovine serum and 400 μg ml^−1 geneticin.
Cells were harvested at approximately 70% confluence by treatment with a cell dissociation buffer, and seeded at 5×10^3 cells/100 μl culture medium into wells of a black Costar clear-bottomed 96-well microtitre plates. Plates were incubated overnight at 37° C. in 5% CO2 and used the following day.
Before use, the cell plates were washed twice with 100 μl Hanks balanced salt solution (HBSS).
After two hours incubation in the dark at room temperature, the plates were analysed in an FMAT8100 reader (Applied Biosystems) to measure fluorescence that was associated with binding of FB-MDC to the cells.

CCR4 [3] = target: T1, CCR4; test: Predicted whole blood potency; conditions: calculated: CCR4 pIC50+Log((100−% Bound)/100)
Protocol: Predicted whole blood potency is a measure of the combined effects of CCR4 activity and plasma protein binding, and is calculated by the formula: Whole Blood Potency=CCR4 pIC50+Log((100−% Bound)/100).

[4] = test system: salmonella typhimurium LT2 strains TA98 and TA100; test: Metabolite testing: mutagenicity (Maron and Ames test); type: cell-based; conditions: strains TA98 and TA100, with or without metabolic activation (rat liver S9)
Protocol: 5-Fluoro-3-methoxy-2-pyrazinamine and 6-fluoro-3-methoxy-2-pyrazinamine were tested for mutagenicity according to the test procedure of Maron and Ames described in Mutation Res. 1983; 113:173-215 using salmonella typhimurium LT2 strains TA98 and TA100. For metabolic activation a homogenate of liver from Aroclor 1254-treated rats (post-mitochondrial fraction (S9) purchased from Molecular Toxicology Inc., Boone, N.C., USA) was added to agar plates (without histidine) together with the test compound and the bacterial tester strains; the complete activation system employed was: phosphate buffer (0.1 mol/L, pH 7.4):100 mmol/L; magnesium chloride: 8 mmol/L; potassium chloride: 33 mmol/L; nicotinamide adenine dinucleotide phosphate: 4 mmol/L; glucose-6-phosphate:5 mmol/L; and rat liver homogenate (S9 fraction):10% v/v. The mean number of revertant colonies and sample standard deviation (from control plates) were calculated for each test group. A test compound was considered to be mutagenic when the following criteria were satisfied: i) the number of revertant colonies in any strain increased in the presence of one or more dose of the test compound, with or without metabolic activation ii) there was a dose-related increase in the number of revertant colonies, and iii) any increase was reproducible.

In the case of `COc1nc(Br)cnc1NS(=O)(=O)c1cccc(Cl)c1Cl` [Ex. 8 WO03/059893, 2,3-dichloro-N-(5-bromo-3-methoxy-2-pyrazinyl)benzenesulphonamide, reference compound], the fraction unbound at 10 µM [1] is reported as 0.002, the IC50 (CCR4 [2]) is reported as 5.01 nM and the “Whole Blood Potency” value (CCR4 [3]) is reported as 5.6.
With `COc1nccnc1NS(=O)(=O)c1cccc(Cl)c1Cl` [Ex. 30 WO03/059893, 2,3-dichloro-N-(3-methoxy-2-pyrazinyl)benzenesulphonamide, reference compound] the fraction unbound at 10 µM [1] was 0.011, the IC50 (CCR4 [2]) was 20 nM and the “Whole Blood Potency” value (CCR4 [3]) was 5.7.
For `COc1nc(CO)c(F)nc1NS(=O)(=O)c1cccc(Cl)c1Cl` [Example 4, 2,3-Dichloro-N-[6-fluoro-5-(hydroxymethyl)-3-methoxypyrazin-2-yl]-benzenesulfonamide], the fraction unbound at 10 µM [1] was 0.013, the IC50 (CCR4 [2]) was 15.8 nM and the “Whole Blood Potency” value (CCR4 [3]) was 5.9.
In the case of `COc1nc(F)cnc1NS(=O)(=O)c1cccc(Cl)c1Cl` [Example 2, 2,3-dichloro-N-(5-fluoro-3-methoxypyrazin-2-yl)-benzenesulfonamide], the fraction unbound at 10 µM [1] is reported as 0.006, the IC50 (CCR4 [2]) is reported as 3.16 nM and the “Whole Blood Potency” value (CCR4 [3]) is reported as 6.3.
In the case of `COc1nc(F)cnc1NS(=O)(=O)c1cccc(Cl)c1C` [Example 7, 3-Chloro-N-(5-fluoro-3-methoxypyrazin-2-yl)-2-methyl-benzenesulfonamide], the fraction unbound at 10 µM [1] is reported as 0.004, the IC50 (CCR4 [2]) is reported as 3.98 nM and the “Whole Blood Potency” value (CCR4 [3]) is reported as 6.0.
With `COc1nc(F)c(CO)nc1NS(=O)(=O)c1cccc(Cl)c1Cl` [Example 6, 2,3-Dichloro-N-[5-fluoro-6-(hydroxymethyl)-3-methoxypyrazin-2-yl]-benzenesulfonamide] the fraction unbound at 10 µM [1] was 0.005, the IC50 (CCR4 [2]) was 6.31 nM and the “Whole Blood Potency” value (CCR4 [3]) was 5.9.
In the case of `COc1nc(Cl)cnc1NS(=O)(=O)c1cccc(Cl)c1Cl` [Ex. 5 WO03/059893, 2,3-dichloro-N-(5-chloro-3-methoxy-2-pyrazinyl)benzenesulphonamide, reference compound], the fraction unbound at 10 µM [1] is reported as 0.002, the IC50 (CCR4 [2]) is reported as 12.6 nM and the “Whole Blood Potency” value (CCR4 [3]) is reported as 5.2.
With `COc1nc(F)cnc1N` [5-fluoro-3-methoxy-2-pyrazinamine, 5-Fluoro-3-methoxy-2-pyrazinamine] the mutagenicity test result [4] was “negative”.
For `COc1ncc(F)nc1NS(=O)(=O)c1cccc(Cl)c1Cl` [Example 3, 2,3-Dichloro-N-(6-fluoro-3-methoxypyrazin-2-yl)-benzenesulfonamide], the fraction unbound at 10 µM [1] was 0.003, the IC50 (CCR4 [2]) was 3.16 nM and the “Whole Blood Potency” value (CCR4 [3]) was 6.0.
In the case of `COc1nc(F)cnc1NS(=O)(=O)c1cccc(F)c1Cl` [Example 1, 2-Chloro-3-fluoro-N-(5-fluoro-3-methoxypyrazin-2-yl)-benzenesulfonamide], the fraction unbound at 10 µM [1] is reported as 0.01, the IC50 (CCR4 [2]) is reported as 5.01 nM and the “Whole Blood Potency” value (CCR4 [3]) is reported as 6.3.
For `COc1ncc(F)nc1N` [6-fluoro-3-methoxy-2-pyrazinamine], the mutagenicity test result [4] was “negative”.
In the case of `COc1nc(F)cnc1NS(=O)(=O)c1cccc(Cl)c1F` [Example 5, 3-Chloro-2-fluoro-N-(5-fluoro-3-methoxypyrazin-2-yl)-benzenesulfonamide], the fraction unbound at 10 µM [1] is reported as 0.011, the IC50 (CCR4 [2]) is reported as 10 nM and the “Whole Blood Potency” value (CCR4 [3]) is reported as 6.0.
